# The supplement of paper PMC10307832
# What was measured:
# Assay in all cases: relative viability (nuclei count vs DMSO), 5 days (fraction); higher = more cells survive
# Kobe2602 + Pemetrexed = compound: C1=CC(=CC=C1NC(=S)NNC2=C(C=C(C=C2[N+](=O)[O-])C(F)(F)F)[N+](=O)[O-])F [Kobe2602] + Nc1nc2[nH]cc(CCc3ccc(C(=O)N[C@@H](CCC(=O)O)C(=O)O)cc3)c2c(=O)[nH]1 [Pemetrexed] (partner 0.2 µM)
# Method in brief: (§1)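 The day after seeding in 1536-well plates, lung cancer cell lines were treated by pin tool with a single drug, or with a fixed anchor-drug dose together with five library-drug doses (not always all listed) in √10 steps. After 5 days, a combined fix-and-stain solution (final 0.05% Triton X-100, 1% formaldehyde, 1 ug/ml Hoechst) was added. Nuclei counted on 4× images gave relative viability as treated counts over vehicle counts, reported as the median of duplicate plates.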
# Kobe2602 + Vorinostat = compound: C1=CC(=CC=C1NC(=S)NNC2=C(C=C(C=C2[N+](=O)[O-])C(F)(F)F)[N+](=O)[O-])F [Kobe2602] + O=C(CCCCCCC(=O)Nc1ccccc1)NO [Vorinostat] (partner 1 µM)
# Method in brief: as §1
# Zosuquidar + Tozasertib = compound: O[C@@H](COc1cccc2ncccc12)CN1CCN([C@@H]2c3ccccc3[C@@H]3[C@H](c4ccccc42)C3(F)F)CC1 [Zosuquidar] + Cc1cc(Nc2cc(N3CCN(C)CC3)nc(Sc3ccc(NC(=O)C4CC4)cc3)n2)n[nH]1 [Tozasertib] (partner 0.1 µM)
# Method in brief: as §1
# Zosuquidar + Olaparib = compound: O[C@@H](COc1cccc2ncccc12)CN1CCN([C@@H]2c3ccccc3[C@@H]3[C@H](c4ccccc42)C3(F)F)CC1 [Zosuquidar] + O=C(c1cc(Cc2n[nH]c(=O)c3ccccc23)ccc1F)N1CCN(C(=O)C2CC2)CC1 [Olaparib] (partner 8 µM)
# Method in brief: as §1
Cell Line,relative viability (Kobe2602 + Pemetrexed; first compound 0.2 µM),relative viability (Kobe2602 + Pemetrexed; first compound 0.6325 µM),relative viability (Kobe2602 + Pemetrexed; first compound 2 µM),relative viability (Kobe2602 + Pemetrexed; first compound 6.325 µM),relative viability (Kobe2602 + Pemetrexed; first compound 20 µM),relative viability (Kobe2602 + Vorinostat; first compound 0.2 µM),relative viability (Kobe2602 + Vorinostat; first compound 0.6325 µM),relative viability (Kobe2602 + Vorinostat; first compound 2 µM),relative viability (Kobe2602 + Vorinostat; first compound 6.325 µM),relative viability (Kobe2602 + Vorinostat; first compound 20 µM),relative viability (Zosuquidar + Tozasertib; first compound 0.01 µM),relative viability (Zosuquidar + Tozasertib; first compound 0.03162 µM),relative viability (Zosuquidar + Tozasertib; first compound 0.1 µM),relative viability (Zosuquidar + Tozasertib; first compound 0.3162 µM),relative viability (Zosuquidar + Tozasertib; first compound 1 µM),relative viability (Zosuquidar + Olaparib; first compound 0.01 µM),relative viability (Zosuquidar + Olaparib; first compound 0.03162 µM),relative viability (Zosuquidar + Olaparib; first compound 0.1 µM),relative viability (Zosuquidar + Olaparib; first compound 0.3162 µM),relative viability (Zosuquidar + Olaparib; first compound 1 µM)
CAL-12T,1.2,1.14,1.24,1.1,1.14,0.828,0.831,0.769,0.851,0.706,0.263,0.289,0.329,0.333,0.286,0.739,0.715,0.741,0.793,0.706
NCI-H838,0.257,0.251,0.261,0.246,0.232,0.68,0.767,0.654,0.703,0.683,0.264,0.316,0.273,0.291,0.285,0.758,0.74,0.814,0.825,0.847
NCI-H1944,0.632,0.658,0.738,0.626,0.62,0.532,0.64,0.538,0.531,0.629,0.244,0.24,0.254,0.243,0.248,0.404,0.407,0.384,0.516,0.385
NCI-H1437,0.303,0.317,0.313,0.298,0.295,0.855,0.739,0.78,0.791,0.625,0.41,0.408,0.424,0.396,0.381,0.591,0.646,0.669,0.604,0.662
RERF-LC-KJ,0.468,0.469,0.498,0.496,0.449,0.679,0.69,0.671,0.665,0.509,0.501,0.552,0.505,0.519,0.428,0.802,0.985,0.878,1.01,0.855
NCI-H1395,1.04,1.01,0.931,0.967,0.843,0.786,1.04,0.733,0.666,0.93,0.729,0.893,0.804,0.81,0.755,0.469,0.441,,0.501,0.443
NCI-H1651,0.526,0.51,0.569,0.573,0.731,0.601,0.448,0.583,0.551,0.751,0.603,0.607,0.782,0.627,0.623,0.181,0.194,0.169,0.2,0.179
NCI-H1734,0.445,0.419,0.422,0.418,0.398,0.863,0.912,0.844,0.841,0.8,0.263,0.254,0.243,0.268,0.263,0.614,0.674,0.613,0.655,0.646
NCI-H520,0.709,0.675,0.559,0.724,0.772,0.702,0.775,0.637,0.691,0.731,0.413,0.441,,0.392,0.416,0.395,0.312,0.341,0.29,0.335
PC-14,0.15,0.137,0.134,0.15,0.14,0.637,0.788,0.739,0.75,0.413,0.551,0.602,0.629,0.519,0.57,0.26,0.319,0.205,0.307,0.179
NCI-H2347,0.432,0.467,0.427,0.443,0.431,0.523,0.696,0.732,0.661,0.705,0.593,0.575,0.555,0.691,0.543,0.589,0.545,0.579,0.603,0.475
NCI-H1793,0.732,1.04,0.781,0.903,0.875,0.702,0.881,0.764,0.795,0.936,0.345,0.534,,0.393,0.376,0.971,,,1.01,0.758
NCI-H650,0.816,1.04,0.867,1.05,0.889,0.466,0.411,0.421,0.499,0.434,0.795,0.748,0.739,0.803,0.791,0.393,0.393,0.394,0.454,0.369
NCI-H596,0.541,0.523,0.568,0.505,0.495,0.591,0.726,0.63,0.659,0.68,0.877,,0.986,1.16,0.905,0.651,0.607,0.67,0.696,0.666
